Patent US10793892B2, “Method for detecting the presence of expanded spectrum β-lactamase-producing bacteria in a sample” (INSERM (INSTITUT NATIONAL DE LA SANTE ET DE LA RECHERCHE …, priority 2011, dated 2020)

Key:
CTX-M producers = assay: Susceptibility testing, MIC by Etest; format: cell-based, Enterobacteriaceae; details: all CTX-M producers (n=147)
Experimental: (§1) Susceptibility testing was performed by determining MIC values using the Etest® (AB bioMérieux; Solna, Sweden) on Mueller-Hinton agar plates at 37° C. and results were recorded according to US guidelines (CLSI), as updated in 2012 (2). The breakpoints for cefotaxime are susceptible (S)≤1 and resistant (R)≥4 μg/ml, and for ceftazidime S≤4 and R≥16 μg/ml.

S. ficaria = assay: ESBL NDP test using spiked blood cultures; format: biochemical; set-up: key: (+) and (−) referred to color change being, red to yellow or unchanged, respectively; (+) and (−) referred to color change being, red to yellow or unchanged, respectively; details: S. ficaria CIP 104255, Wild-type
Experimental: (§2) Strains were isolated on Mueller-Hinton agar (Biorad, Marnes-la-Coquette, France) and incubated at 37° C. for 16 h to 24 h before performing the NDP rapid ESBL test as follows. One calibrated inoculated loop (10 μl) of the tested strain was resuspended in 150 μl of 20 mM Tris-HCl lysis buffer previously distributed in Microbead tubes (Ultraclean Microbial DNA isolation kit Bead Tubes, MO BIO Laboratories, Carlsbad, USA). Mechanical lysis of bacteria was performed by strong agitation of Microbead tubes using a vortex adapter (MO BIO Laboratories) for 30 min at room temperature. This bacterial suspension was centrifuged at 10,000×g at room temperature for 5 min. Thirty μl of the supernatant was mixed in a well of a 96-well tray with 100 μl of a 1 ml solution made of 3 mg of purified cefotaxime sodium salt (Sigma-Aldrich, Saint-Quentin-Fallavier, France) in a pH 7.8 phenol red solution. […]. […] Similarly, culture extracts were analyzed in wells containing cefotaxime and tazobactam (4 mg/ml). […]
(§3) Rapid detection of ESBL producers was attempted from spiked blood cultures which positivity was assessed using the BactAlert blood culture system (bioMérieux). […] Spiked blood cultures were made of 1×10^3 CFU of each strain and incubated 24 to 48 h before a positivity of the blood culture was detected by the BactAlert system. […]

S. thyphimurium = assay: ESBL NDP test using spiked blood cultures; format: biochemical; set-up: key: (+) and (−) referred to color change being, red to yellow or unchanged, respectively; (+) and (−) referred to color change being, red to yellow or unchanged, respectively; details: S. thyphimurium 10.81, CTX-M-1
Experimental: as §2, §3

P. stuartii = assay: Susceptibility testing, MIC by Etest; format: cell-based, Providencia stuartii; details: P. stuartii TEM-24, n=1
Experimental: as §1

For `CO/N=C(\C(=O)N[C@@H]1C(=O)N2C(C(=O)O)=C(COC(C)=O)CS[C@H]12)c1csc(N)n1` [CTX, cefotaxime], the MIC (CTX-M producers) was > 8 µg/mL, the “ESBL NDP Test from: Blood culture” value (S. ficaria) was “−” and the “ESBL NDP Test from: Blood culture” value (S. thyphimurium) was “+”. The MICs range (P. stuartii) was 0.5 µg/mL.
